Results as given in publication PMC6934184, “Selective DNA-PKcs inhibition extends the therapeutic index of localized radiotherapy and chemotherapy” (The Journal of Clinical Investigation, 2019).

Target: T1, MKNK2 (MNK2) (Homo sapiens, UniProt Q9HBH9)
T1 construct: purchased Thermo Fisher Scientific (Life Technologies) SelectScreen
Assay: SelectScreen LanthaScreen
Type: binding
Settings: read-out: % displacement
Summary of the method: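 SelectScreen broad panel; activity (Z'LYTE, Adapta) plus binding formats. ATP: Km app for CSF1R Z'LYTE; 10 for CAMK1 Adapta. Readout = % per kinase.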

T1 sequence (Q9HBH9 whole entry): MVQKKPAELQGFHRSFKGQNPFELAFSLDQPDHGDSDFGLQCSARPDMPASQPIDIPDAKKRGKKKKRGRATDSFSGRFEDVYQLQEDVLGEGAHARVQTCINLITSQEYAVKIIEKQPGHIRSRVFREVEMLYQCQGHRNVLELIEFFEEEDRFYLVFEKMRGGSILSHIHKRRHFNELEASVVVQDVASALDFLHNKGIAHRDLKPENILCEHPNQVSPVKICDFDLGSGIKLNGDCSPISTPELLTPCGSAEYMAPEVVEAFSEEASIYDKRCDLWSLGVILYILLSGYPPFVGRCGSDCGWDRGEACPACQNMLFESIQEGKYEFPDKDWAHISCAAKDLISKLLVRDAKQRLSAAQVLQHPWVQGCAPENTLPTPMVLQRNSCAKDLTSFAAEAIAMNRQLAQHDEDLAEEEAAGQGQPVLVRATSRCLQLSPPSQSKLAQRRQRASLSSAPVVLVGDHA

Structure (SMILES): CN(C(=O)CN1CCOCC1)c1ccc2sc3c(-c4cccc5c(=O)cc(N6CC7CCC(C6)O7)oc45)cccc3c2c1 [NU5455]
- inhibition at 1 µM: 0.2%
